By IC50 is commonly meant the concentration needed to halve the response being measured.

Holding throughout (type): biochemical
In one test the target is LRRK2 (G2019S) (Homo sapiens, UniProt Q5S007, G2019S). Briefly: LRRK2 G2019S enzyme inhibition, ADP-Glo kinase assay. On the set-up: purchased SignalChem L10-12GG. The note with it: ATP 25 μM. The procedure: To evaluate an inhibitory activity of the compound according to the present invention against LRRK2, LRRK2 (G2019S), DYRK1, CLK1, and TTK kinases, experiments were performed as follows.
Each of the Example compounds was reacted with a purified human LRRK2 G2019S (L10-12GG, SignalChem) enzyme to evaluate an ability to inhibit an enzyme using a method as described below. A composition of 40 mM Tris-HCl (pH 7.4), 20 mM MgCl2, 0.5 mg/mL BSA, and 50 μM DTT was used as a reaction buffer, and all reactions of test substances were performed in the reaction buffer. Each of the compounds was diluted […] from a 10 mM DMSO stock using a serial dilution method, and enzyme activities were measured at final compound concentrations of 50, 10, 2, 0.4, 0.08, 0.016, 0.0032, 0.00064, 0.000128, 0.0000256, 0.00000512, and 0.000001024 μM. In the test, purified ATP (25 μM) and an enzyme substrate (0.2 μg) were reacted with a human LRRK2 G2019S (16 ng) enzyme at 25° C. for 2 hours, and the enzyme activities were then determined using an in vitro ADP-Glo™ kinase assay (Promega). An enzyme-activity reaction solution, an ADP-Glo reaction solution, and an enzyme-ability detection solution were reacted at a ratio of 2:2:1 to measure a degree of inhibition of the enzyme activity with luminescence. The degree of inhibition of the enzyme activity according to the treatment concentration of each of the compounds was calculated based on the fluorescence of the enzyme activity of the solvent control which was not treated with the compound. In this case, the concentration of each of the compounds inhibiting 50% of the enzyme activity was determined to be an IC50 (nM) value, and calculated using Prism (Version 5.01; GraphPad) software.
On the technique in general: ADP-Glo first removes unused ATP, then detects ADP through luciferase.

For the next test, the target named is T1, human GST-DYRK1A (Homo sapiens, UniProt Q13627).
T1 construct: purified human GST-DYRK1A (full length, Thermo Scientifics) enzyme; purchased Thermo Scientifics
The test is described as follows: GST-DYRK1A enzyme inhibition, ADP-Glo kinase assay. The settings on record: ATP 10 μM, GST-DYRK1A full length, read-out: DYRK1 IC50. The procedure, abridged:
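Full-length enzyme (10 ng) was incubated with 10 μM ATP and a specific substrate for 1 h at 25 °C in 40 mM Tris-HCl pH 7.4, 20 mM MgCl2, 0.5 mg/mL BSA, 50 μM DTT. Luminescence was read against a solvent control, and IC50 values were derived from 3 data sets.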

The next test has as its target T2, human GST-CLK1 (Homo sapiens, UniProt P49759).
T2 construct: purified human GST-CLK1 (129-end, SignalChem) enzyme; purchased SignalChem
The test is described as follows: GST-CLK1 enzyme inhibition, ADP-Glo kinase assay. The settings on record: ATP 10 μM, GST-CLK1 129-end. Summed up: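 ADP-Glo luminescence read-out, relative to untreated solvent control, gave IC50 (nM) from triplicate data sets. Reactions ran an hour at 25° C with 3 ng GST-CLK1 (residues 129-end), 10 μM ATP and specific substrate in Tris-HCl pH 7.4 buffer with MgCl2, BSA and DTT.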

T2 sequence (P49759 129-484 limits assumed): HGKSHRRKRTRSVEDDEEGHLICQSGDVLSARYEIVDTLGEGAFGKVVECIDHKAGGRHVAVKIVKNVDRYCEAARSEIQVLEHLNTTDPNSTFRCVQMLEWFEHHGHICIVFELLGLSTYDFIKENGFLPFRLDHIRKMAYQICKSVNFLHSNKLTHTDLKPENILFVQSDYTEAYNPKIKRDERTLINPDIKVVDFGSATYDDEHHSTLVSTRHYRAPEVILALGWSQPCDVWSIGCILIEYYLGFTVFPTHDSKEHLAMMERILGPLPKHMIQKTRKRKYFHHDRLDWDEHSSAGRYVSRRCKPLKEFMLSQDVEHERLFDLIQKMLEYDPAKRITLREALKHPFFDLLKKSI
Chain of LRRK2 (G2019S) (Q5S007 970-2527 G2019S limits assumed): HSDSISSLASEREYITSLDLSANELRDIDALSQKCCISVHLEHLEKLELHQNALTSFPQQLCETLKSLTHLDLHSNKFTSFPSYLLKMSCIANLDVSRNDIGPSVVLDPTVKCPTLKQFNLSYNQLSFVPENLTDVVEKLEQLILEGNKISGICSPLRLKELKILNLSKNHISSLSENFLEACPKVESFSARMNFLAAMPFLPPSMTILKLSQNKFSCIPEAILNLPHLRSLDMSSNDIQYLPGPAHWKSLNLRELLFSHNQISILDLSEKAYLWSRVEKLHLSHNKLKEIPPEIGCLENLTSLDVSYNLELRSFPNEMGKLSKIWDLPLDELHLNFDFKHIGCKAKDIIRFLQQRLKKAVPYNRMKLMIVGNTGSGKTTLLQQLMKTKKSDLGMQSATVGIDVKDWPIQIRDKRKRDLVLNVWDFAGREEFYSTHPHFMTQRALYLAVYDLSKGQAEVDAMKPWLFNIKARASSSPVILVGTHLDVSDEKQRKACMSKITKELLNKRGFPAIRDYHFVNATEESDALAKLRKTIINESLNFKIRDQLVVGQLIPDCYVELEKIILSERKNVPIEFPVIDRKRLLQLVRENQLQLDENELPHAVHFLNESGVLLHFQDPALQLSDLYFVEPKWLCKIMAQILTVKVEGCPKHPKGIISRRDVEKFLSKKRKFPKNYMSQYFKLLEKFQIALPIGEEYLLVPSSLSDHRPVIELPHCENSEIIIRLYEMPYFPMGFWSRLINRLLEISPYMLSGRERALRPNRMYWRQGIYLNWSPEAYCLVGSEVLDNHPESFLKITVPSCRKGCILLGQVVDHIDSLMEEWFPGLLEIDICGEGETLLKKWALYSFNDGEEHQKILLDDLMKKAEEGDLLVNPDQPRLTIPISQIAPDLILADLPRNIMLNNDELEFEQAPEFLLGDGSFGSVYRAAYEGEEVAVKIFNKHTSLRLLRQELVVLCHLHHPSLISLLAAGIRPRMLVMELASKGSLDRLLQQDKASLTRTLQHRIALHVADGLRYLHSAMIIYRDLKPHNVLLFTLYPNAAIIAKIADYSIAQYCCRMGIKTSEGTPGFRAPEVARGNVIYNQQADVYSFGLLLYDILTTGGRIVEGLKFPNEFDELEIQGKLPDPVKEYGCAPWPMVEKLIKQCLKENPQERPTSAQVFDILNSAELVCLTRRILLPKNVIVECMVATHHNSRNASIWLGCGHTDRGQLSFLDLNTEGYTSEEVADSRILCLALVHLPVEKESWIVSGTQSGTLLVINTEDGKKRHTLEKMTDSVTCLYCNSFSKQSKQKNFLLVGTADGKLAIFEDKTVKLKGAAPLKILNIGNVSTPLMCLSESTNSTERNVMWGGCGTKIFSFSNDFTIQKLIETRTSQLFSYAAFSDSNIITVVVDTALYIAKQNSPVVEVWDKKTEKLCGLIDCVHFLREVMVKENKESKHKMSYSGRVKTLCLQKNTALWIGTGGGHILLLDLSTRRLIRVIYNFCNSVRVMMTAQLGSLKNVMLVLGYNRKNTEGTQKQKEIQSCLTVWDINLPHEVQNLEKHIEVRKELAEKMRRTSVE

As for `COCC(C)(C)Nc1nc(Nc2ccc(S(=O)(=O)N3CCOCC3)cc2OC)nc2[nH]ccc12` [Example 34, N^4-(1-methoxy-2-methylpropan-2-yl)-N^2-(2-methoxy-4-(morpholinosulfonyl)phenyl)-7H-pyrrolo[2,3-d]pyrimidine-2,4-diamine], the IC50 is less than 0.1 µM on LRRK2 (G2019S), 0.301 to 1 µM at human GST-DYRK1A and 0.301 to 1 µM on human GST-CLK1.

As to `COc1cc(S(C)(=O)=O)ccc1Nc1nc(NCC(C)C)c2cc[nH]c2n1` [Example 12, N^4-isobutyl-N^2-(2-methoxy-4-(methylsulfonyl)phenyl)-7H-pyrrolo[2,3-d]pyrimidine-2,4-diamine 2,2,2-trifluoroacetate], the IC50 on LRRK2 (G2019S) is less than 0.1 µM; at human GST-DYRK1A, 0.301 to 1 µM; at human GST-CLK1, 0.301 to 1 µM.

Turning to `COc1cc(S(=O)(=O)N2CCOCC2)ccc1Nc1nc(NC2CCC2)c2cc[nH]c2n1` [Example 22, N^4cyclobutyl-N^2-(2-methoxy-4-(morpholinosulfonyl)phenyl)-7H-pyrrolo[2,3-d]pyrimidine-2,4-diamine], the IC50 against LRRK2 (G2019S) is less than 0.1 µM; on human GST-DYRK1A, 0.301 to 1 µM; against human GST-CLK1, 0.301 to 1 µM.

Take `COc1cc(S(=O)(=O)N2CCC(N3CCOCC3)CC2)ccc1Nc1nc(NC2CC2)c2cc[nH]c2n1` [Example 54, N^4-cyclopropyl-N^2-(2-methoxy-4-((4-morpholinopiperidin-1-yl)sulfonyl)phenyl)-7H-pyrrolo[2,3-d]pyrimidine-2,4-diamine]: the values for the IC50 on LRRK2 (G2019S), on human GST-DYRK1A and on human GST-CLK1 were less than 0.1 µM, 0.301 to 1 µM and 0.301 to 1 µM, respectively.

Regarding `CCCCNc1nc(Nc2ccc(C(=O)N3CCN(C4COC4)CC3)c3c2OCCO3)nc2[nH]cc(C(F)(F)F)c12` [Example 429, (8-((4-(butylamino)-5-(trifluoromethyl)-7H-pyrrolo[2,3-d]pyrimidin-2-yl)amino)-2,3-dihydrobenzo[b] [1,4]dioxin-5-yl) (4-(oxetan-3-yl)piperazin-1-yl)methanone], the IC50 against LRRK2 (G2019S), on human GST-DYRK1A and against human GST-CLK1 was less than 0.1 µM throughout.

As for `COc1cc(S(=O)(=O)N2CCOCC2)ccc1Nc1nc(NCC2CCC2)c2cc[nH]c2n1` [Example 37, N^4-(cyclobutylmethyl)-N^2-(2-methoxy-4-(morpholinosulfonyl)phenyl)-7H-pyrrolo[2,3-d]pyrimidine-2,4-diamine], the concentration for half-maximal inhibition (IC50) at LRRK2 (G2019S) was less than 0.1 µM; at human GST-DYRK1A, 0.301 to 1 µM; against human GST-CLK1, 0.301 to 1 µM.

For the compound `COc1cc(P(C)(C)=O)ccc1Nc1nc(NCC2CC2)c2c(C(F)(F)F)c[nH]c2n1` [Example 390, (4-((4-((cyclo-propylmeth-yl)amino)-5-(trifluoromethyl)-7H-pyrrolo[2,3-d]pyrimidin-2-yl)amino)-3-methoxyphenyl) dimethyl-phosphine oxide], the IC50 is less than 0.1 µM against LRRK2 (G2019S), 0.301 to 1 µM at human GST-DYRK1A and less than 0.1 µM at human GST-CLK1.

For the compound `COCCNc1nc(Nc2ccc(C(=O)N3CCOCC3)c3c2OCCO3)nc2[nH]ccc12` [Example 46, (8-((4-((2-methoxyethyl)amino)-7H-pyrrolo[2,3-d]pyrimidin-2-yl)amino)-2,3-dihydrobenzo[b][1,4]dioxin-5-yl)(morpholino)methanone 2,2,2-trifluoroacetate], the IC50 against LRRK2 (G2019S) is less than 0.1 µM; on human GST-DYRK1A, 0.301 to 1 µM; against human GST-CLK1 it was 0.301 to 1 µM.

Turning to `O=C(c1ccc(Nc2nc(N[C@H]3CCOC3)c3c(C(F)(F)F)c[nH]c3n2)c2c1CCO2)N1CCOCC1` [Example 455], the IC50 on LRRK2 (G2019S), on human GST-DYRK1A and against human GST-CLK1 was less than 0.1 µM throughout.

In the case of `COc1cc(S(C)(=O)=O)ccc1Nc1nc(NC2CCOCC2)c2cc[nH]c2n1` [Example 30, N^2-(2-methoxy-4-(methylsulfonyl)phenyl)-N^4-(tetrahydro-2H-pyran-4-yl)-7H-pyrrolo[2,3-d]pyrimidine-2,4-diamine 2,2,2-trifluoroacetate], the IC50 at LRRK2 (G2019S) was less than 0.1 µM; at human GST-DYRK1A, 0.301 to 1 µM; against human GST-CLK1, 0.301 to 1 µM.

The record behind these values is US20230066011A1, “PYRROLOPYRIMIDINE DERIVATIVE, AND PHARMACEUTICAL COMPOSITION FOR PREVENTING OR TREATING PROTEIN KINASE-RELATED DISEASE COMPRISING SAME AS ACTIVE INGREDIENT” (VORONOI CO., LTD., priority 2019, published 2023).
